These results are taken from patent US8901129B2, “Methods of facilitating neural cell survival using GDNF family ligand (GFL) mimetics or RET signaling pathway activators” (GeneCode AS, priority 2009, dated 2014).

The test system of one experiment is 6-OHDA lesioned rats. Kind of experiment: Amphetamine induced rotation asymmetry in 6-OHDA rat model of Parkinson's disease (FIG. 7). The following applies: for amphetamine-induced ipsilateral rotation: 3 weeks after 6-OHDA, measured 6 weeks after 6-OHDA; for amphetamine-induced ipsilateral rotation of lesioned rats: injected into striatum 3 weeks after 6-OHDA, dose not stated. Format: in vivo. The text has this: The objective of this study is to investigate the effect of intrastriatally (i.s.) administered small molecule GDNF mimetics (compounds 13, 16, 319H6 and 292651, structures shown in the description of the Figures, above) in a rat model 6-OHDA of Parkinson's disease. In the sub-acute lesion model used in this study, the lesion of the substantia nigra (SNc) that slowly progresses over weeks is created by injection of 6-OHDA into the proximity of the dopaminergic terminals in the striatum (Kirik-D 1998, Exp. Neurol. 152:259-277). In this model, a portion of the nigrostriatal projection is left intact, which can serve as a substrate for regeneration and functional recovery in response to growth promoting and neuroprotective agents.
GDNF mimetics compounds, GDNF or vehicle is administered to the striatum at 3 weeks after the exposure to the neurotoxin 6-OHDA. The selective damage to dopaminergic neurons in the SNc, as well as striatal levels of dopamine and its metabolites are evaluated 12 weeks after the injection of 6-OHDA with tyrosine hydroxylase (TH) immunohistochemistry and HPLC, respectively. In addition, the behavioral impairment of rats is evaluated by forelimb asymmetry test (cylinder test), amphetamine induced rotation asymmetry test and Y-maze test for stereotypic spontaneous rotation deficits.
Animals: All animal experiments are carried out according to the National Institute of Health (NIH) guidelines for the care and use of laboratory animals, and approved by the State Provincial Office of Southern Finland. Altogether 108 male Wistar rats, purchased from Charles River, Germany and weighing 220-275 g are used for the experiment. Animals are housed at a standard temperature (22±1° C.) and in a light-controlled environment (lights on from 7 am to 8 pm) with ad libitum access to food and water. Animals are grouped as follows:
In order to generate partial retrograde degeneration into the SNc, 6-OHDA lesioning is carried out according to Sauer and Oertel with modifications (Sauer and Oertel, 1994). Male Wistar rats are anesthetized with 5% isoflurane (in 70% N2O and 30% O2; flow 300 ml/min) and placed in a stereotactic frame. During the operation concentration of anesthetic is reduced to 1-1.5%. The rectal temperature is maintained at 37.0±1.0° C. with a homeothermic blanket system. The right brain hemisphere is exposed through a small craniectomy to the skull. The dura mater is carefully removed with fine forceps and a stereotaxic injection of 6-OHDA (4 μg/μl) is made into the right striatum. A total of 7 μl of 6-OHDA is infused at a speed of 0.5 μl/min and is equally distributed between 4 sites at the following coordinates: AP+1.0, ML+2.8, DV−6.0, −5.5, −5.0 and −4.4 mm. The cannula is left in place for another 5 min before being withdrawn. The hole in the skull is subsequently filled with repair material and the skin is closed and disinfected. The rats are allowed to recover from anesthesia and are carefully monitored for possible post surgical complications. The animals are returned to the home cages with ad libitum access to food and water.
On day 21, rats are re-anesthetized with 5% isoflurane (in 70% N2O and 30% O2; flow 300 ml/min) and placed in a stereotactic frame. During the operation concentration of anesthetic is reduced to 1-1.5%. The rectal temperature is maintained at 37.0±1.0° C. with a homeothermic blanket system. The right brain hemisphere is exposed through a small craniectomy to the skull. A stereotaxic injection of the test compound, GDNF or vehicle is made into the right striatum. Each dosing solution is infused at a speed of 1 μl/min and is equally distributed between 4 sites at the following coordinates: AP+1.0, ML+2.8, DV−6.0, −5.5, −5.0 and −4.4 mm. The cannula is left in place for another 5 min before being withdrawn. The hole in the skull is subsequently filled with repair material and the skin is closed and disinfected. […]

The target of a further experiment is T1, GFRα1/RET (Homo sapiens, UniProt P07949+P56159).
T1 construct: Full-length human GFRα1 cDNA (Sidorova et al., unpublished) subcloned in pcDNA6; expressed in transfected cells; host or cells: MG87RET murine fibroblasts transiently transfected with GFRα1
T1 sequence (P56159 25-429 limits assumed, species assumed): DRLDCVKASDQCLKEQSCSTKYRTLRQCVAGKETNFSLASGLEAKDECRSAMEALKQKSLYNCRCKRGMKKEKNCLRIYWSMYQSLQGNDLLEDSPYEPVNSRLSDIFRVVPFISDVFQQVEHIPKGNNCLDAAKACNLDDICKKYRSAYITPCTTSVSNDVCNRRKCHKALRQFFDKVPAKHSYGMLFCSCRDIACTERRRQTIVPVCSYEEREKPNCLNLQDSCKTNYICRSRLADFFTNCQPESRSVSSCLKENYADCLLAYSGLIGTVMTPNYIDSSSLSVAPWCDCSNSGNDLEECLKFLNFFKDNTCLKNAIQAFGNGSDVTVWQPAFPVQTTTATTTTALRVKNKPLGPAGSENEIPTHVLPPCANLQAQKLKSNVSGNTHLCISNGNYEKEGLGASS
T1 sequence (P07949 29-1114, species assumed): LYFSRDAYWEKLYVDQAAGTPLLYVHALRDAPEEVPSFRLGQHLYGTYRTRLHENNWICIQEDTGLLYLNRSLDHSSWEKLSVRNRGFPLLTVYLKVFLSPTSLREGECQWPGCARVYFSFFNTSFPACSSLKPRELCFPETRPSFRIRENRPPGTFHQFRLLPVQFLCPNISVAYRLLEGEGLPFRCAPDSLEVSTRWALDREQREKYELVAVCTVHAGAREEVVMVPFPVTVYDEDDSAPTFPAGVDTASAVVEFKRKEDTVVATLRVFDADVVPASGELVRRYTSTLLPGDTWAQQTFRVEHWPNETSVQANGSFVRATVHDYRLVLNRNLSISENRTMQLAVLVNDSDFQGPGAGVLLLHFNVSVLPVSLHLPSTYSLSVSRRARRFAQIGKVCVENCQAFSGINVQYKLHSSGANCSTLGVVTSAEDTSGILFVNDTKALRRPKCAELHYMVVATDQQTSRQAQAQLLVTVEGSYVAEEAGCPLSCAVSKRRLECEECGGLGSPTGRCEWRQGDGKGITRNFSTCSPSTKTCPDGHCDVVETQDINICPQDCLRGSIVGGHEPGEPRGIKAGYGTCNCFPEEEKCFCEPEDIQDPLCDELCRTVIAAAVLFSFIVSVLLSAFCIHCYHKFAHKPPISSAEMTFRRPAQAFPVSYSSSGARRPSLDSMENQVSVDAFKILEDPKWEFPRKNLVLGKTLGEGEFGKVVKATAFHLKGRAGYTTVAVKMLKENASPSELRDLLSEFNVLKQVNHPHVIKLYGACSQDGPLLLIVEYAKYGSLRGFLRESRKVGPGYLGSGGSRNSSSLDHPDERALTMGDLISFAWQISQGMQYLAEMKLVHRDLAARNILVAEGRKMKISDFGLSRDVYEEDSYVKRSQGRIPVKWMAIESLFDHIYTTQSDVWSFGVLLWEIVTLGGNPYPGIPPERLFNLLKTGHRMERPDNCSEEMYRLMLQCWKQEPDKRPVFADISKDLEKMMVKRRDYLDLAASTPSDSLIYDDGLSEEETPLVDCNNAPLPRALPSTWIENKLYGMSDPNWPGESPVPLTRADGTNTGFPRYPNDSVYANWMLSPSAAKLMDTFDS
Kind of experiment: RET phosphorylation by BT compounds, IP and Western blotting (FIG. 6A). The experiment is classed as cell-based. The following applies: 100 μM, 15 min; MG87 RET fibroblasts transfected with GFRα1. The protocol: MG87RET cells were plated on 35 mm tissue culture dishes the day before the experiment. Cells were transfected with GFRα1, GFRα3 or with an vector encoding for GFP. On the day of the experiment cells were starved for 4 hours in serum-free DMEM and stimulated with the investigated compounds (structures shown in the description of FIG. 6, above) at 100 μM concentration or with 100 ng/ml of GDNF or ARTN (positive control) for 15 min. Then cells were washed once with ice-cold PBS containing 1 mM Na3VO4 and lysed on ice in 1 ml per well of RIPA-modified buffer (50 mM Tris-HCl, pH 7.4, 150 mM NaCl, 1 mM EDTA, 1% NP-40, 1% TX-100, 10% glycerol, EDTA-free protease inhibitor cocktail (Roche), 1 mM Na3VO4, 2.5 mg/ml of sodium deoxycholate, 1 mM PMSF. Ret was immunoprecipitated by anti-RET C-20 antibodies (Santa-Cruz Biotechnology, Inc.). Precipitated proteins were resolved on 7.5% SDS-PAGE and then transferred onto a nitrocellulose membrane. Membrane was blocked for 15 min at room temperature by 10% nonfat dry milk in TBS-T and probed with anti-phosphotyrosine antibodies (clone 4G10, Upstate Biotechnology) diluted 1:1000 in TBS-T containing 3% nonfat dry milk for 2 hours at room temperature. The membranes were washed 3 times for 5 min in TBS-T and incubated in the 1:3000 solution of secondary anti-mouse antibodies conjugated with HRP (DAKO) diluted in TBS-T containing 3% nonfat dry milk for 45 min at room temperature. Membranes were washed with TBS-T for 5×10 min. Stained bands were visualized with ECL reagent (Pierce) using LAS3000 imaging program. To confirm equal loading of the proteins, membranes were probed with anti-RET C-20 antibodies (1:500, Santa-Cruz Biotechnology, inc.) after stripping. We used secondary anti-goat antibodies conjugated with HRP (1:1500, DAKO) to detect C-20.

Turning to `CCN(CC)S(=O)(=O)c1ccc(OC)c(N2CCN(C(=O)c3cc(F)ccc3C(F)(F)F)CC2)c1` [BT13], in the experiment with 6-OHDA lesioned rats (0.2 ug intrastriatal), the amphetamine-induced ipsilateral rotation entry is recorded as “reduced amphetamine-induced ipsilateral rotation”. The “amphetamine-induced ipsilateral rotation of lesioned rats” value in the experiment on 6-OHDA lesioned rats is listed as “significantly reduce”. In addition, the “RET phosphorylation via GFRα1” value at GFRα1/RET was “strongly activated RET”.

Regarding `COc1ccc(S(=O)(=O)N2CCc3ccccc3C2)cc1N1CCN(C(=O)c2cc(F)ccc2C(F)(F)F)CC1` [BT16], in the experiment with 6-OHDA lesioned rats, the “amphetamine-induced ipsilateral rotation of lesioned rats” value is “significantly reduce”. Besides, the amphetamine-induced ipsilateral rotation entry in the experiment with 6-OHDA lesioned rats (intrastriatal (Group 5: 0.5 ug per rat)) is on record as “reduced amphetamine-induced ipsilateral rotation”. The “RET phosphorylation via GFRα1” value at GFRα1/RET is reported as “strongly activated RET”.

Regarding `COc1cc2c(cc1OC)CN(S(=O)(=O)c1ccc(OC)c(N3CCN(C(=O)c4cc(F)ccc4C(F)(F)F)CC3)c1)CC2` [BT18], the amphetamine-induced ipsilateral rotation result with 6-OHDA lesioned rats (1 ug intrastriatal) is on record as “reduced amphetamine-induced ipsilateral rotation”. Further, the “amphetamine-induced ipsilateral rotation of lesioned rats” value in the experiment with 6-OHDA lesioned rats is recorded as “significantly reduce”. The “RET phosphorylation via GFRα1” value on GFRα1/RET is reported as “likely the weaker GFRα1/RET agonists”.
